Source: US20050112551A1, “Dual assay for evaluating activity and cytotoxicity of compounds in the same population of cells” (AGOURON PHARMACEUTICALS, INC., priority 2003, published 2005)
Where two headings read alike, the source gives them in different places.

What was measured:
[1] = system: HIV-1 RF infection of CEM-SS cells; assay: HIV-1 RF cell protection assay (XTT dye reduction), antiviral activity; type: cell-based; details: for HIV-1 RF Cell Protection Assay TI (therapeutic index, CC50/EC50): CC50 divided by EC50, cell protection assay; for EC50: read-out: HIV-1 RF Cell Protection Assay EC50
[2] = HIV-1 RF cell protection assay (XTT dye reduction), cytotoxicity in uninfected cells; type: cell-based; details: human
Description: (§1) The antiviral activities of compounds were also evaluated in cell protection assays by the XTT dye reduction method. CEM-SS subject cells were infected with HIV-1 RF virus at an moi of 0.025 to 0.819 or mock infected with medium only and added at 2×10^4 cells per well into 96-well plates containing half-log dilutions of test compounds. Six days later, 50 μl of XTT (1 mg/ml XTT tetrazolium, […] phenazine methosulfate) was added to the wells and the plate was reincubated for four hours. Viability, as determined by the amount of XTT formazan produced, was quantified spectrophotometrically by absorbance at 450 nm.
(§2) Data from cell protection assays were expressed as the percent of formazan produced in compound-treated cells compared to formazan produced in wells of uninfected, compound-free cells.

[3] = system: VSV/HIVLuc infection of HeLa HRLuc cells; assay: microbe, parasite or virus in culture; details: Vesicular stomatitis virus, 72 h, read-out: Dual Reporter Assay EC50
[4] = system: VSV/HIVLuc infection of HeLa HRLuc cells
[5] = in vitro; details: human
[6] = system: CEM-SS cells; assay: HIV-1 RF cell protection assay (XTT dye reduction), cytotoxicity in uninfected cells; type: cell-based; details: XTT dye reduction, uninfected CEM-SS cells, six days; mean of 2 to 3 experiments
Description: as §1, §2

[7] = system: HeLa HRLuc cells; details: read-out: Dual Reporter Assay CC50; Renilla luciferase reporter in infected HeLa HRLuc cells, ~72 hours; mean of 2 to 3 experiments
[8] = Human immunodeficiency virus 1, 144 h, XTT dye reduction six days after infection of CEM-SS cells with HIV-1 RF, mean of 2 to 3 experiments
[9] = uninfected (mock-infected) CEM-SS cells, XTT dye reduction, uninfected CEM-SS cells, six days, mean of 2 to 3 experiments, read-out: HIV-1 RF Cell Protection Assay CC50
[10] = XTT dye reduction, uninfected CEM-SS cells, six days, mean of 2 to 3 experiments, read-out: HIV-1 RF Cell Protection Assay CC50

Row | SMILES | HIV-1 RF Cell Protection Assay TI (therapeutic index, CC50/EC50) [1] | EC50 [1, 8] | CC50 at 6 days [2, 9] | EC50 [3] | Dual Reporter Assay TI (therapeutic index, CC50/EC50) [4] | CC50 [5] | CC50 at 6 days [2, 10] | CC50 at 6 days [2] | EC50 ([1]; XTT dye reduction six days after infection of CEM-SS cells with HIV-1 RF, mean of 2 to 3 experiments) | CC50 [6] | CC50 [7] | EC50 ([4]; read-out: Dual Reporter Assay EC50) | EC50 ([1]; Human immunodeficiency virus 1, CEM-SS, 144 h)
1 | Cc1cn([C@H]2C[C@H](N=[N+]=[N-])[C@@H](CO)O2)c(=O)[nH]c1=O [AZT, 3′-Azido-3′-deoxythymidine] | >40,000 | 0.008 µM | > 320 µM | 0.029 µM | >11,034 | > 320 µM | – | – | – | – | – | – | –
2 | CC(C)c1nc(COC(N)=O)n(Cc2ccncc2)c1Sc1cc(Cl)cc(Cl)c1 [CPV, Capravirine] | 47,214 | 0.0014 µM | – | 0.0015 µM | 24,266 | 36.4 µM | 66.1 µM | – | – | – | – | – | –
3 | Nc1ccn([C@@H]2CS[C@H](CO)O2)c(=O)n1 [Compound 3TC, lamivudine] | >15,384 | 0.065 µM | – | 0.14 µM | >229 | > 32 µM | – | > 1000 µM | – | – | – | – | –
4 | O=C(O)C(=O)CC(=O)c1cccn1Cc1ccc(F)cc1 [Compound L-731988] | 55.6 | – | – | – | 92.2 | – | – | – | 4.5 µM | 250 µM | 166 µM | 1.8 µM | –
5 | CC(C)Nc1cccnc1N1CCN(C(=O)c2cc3cc(NS(C)(=O)=O)ccc3[nH]2)CC1 [DLV, delavirdine] | 6,961 | 0.013 µM | – | 0.02 µM | >5000 | > 100 µM | 90.5 µM | – | – | – | – | – | –
6 | O=C1Nc2ccc(Cl)cc2[C@@](C#CC2CC2)(C(F)(F)F)O1 [EFV, efavirenz] | 38,266 | 0.0015 µM | – | 0.0004 µM | 179,250 | 71.7 µM | 57.4 µM | – | – | – | – | – | –
7 | Cc1ccnc2c1NC(=O)c1cccnc1N2C1CC1 [NVP, Nevirapine] | >30,303 | 0.033 µM | – | 0.031 µM | >1032 | > 32 µM | > 1000 µM | – | – | – | – | – | –
8 | Cc1cn([C@H]2C=C[C@@H](CO)O2)c(=O)[nH]c1=O [d4T, stavudine] | >64 | 0.51 µM | – | 0.27 µM | >119 | > 32 µM | > 32 µM | – | – | – | – | – | –
9 | O=c1[nH]cnc2c1ncn2[C@H]1CC[C@@H](CO)O1 [ddl, didanosine] | – | – | > 32 µM | 0.59 µM | – | > 32 µM | – | – | – | – | – | – | 12.9 µM
